Assay results: ChEMBL document CHEMBL2157919, “Attenuation of collagen-induced arthritis by orally available imidazoline-based NF-κB inhibitors” (Bioorg Med Chem Lett, 2012)
Each block holds one compound with its values, some of them ahead of it. Active and inactive are the calls of the source. No cut-off for these calls is given here.

How the values were obtained:
[1] = Plasma concentration in BALB/c mouse at 400 mg/kg, po after 3 hrs; format: ADME, organism-based; design: dose 400 mg/kg, route oral
Mus musculus [2] = experiment: Toxicity in BALB/c mouse type 2 collagen antibody-induced arthritis model assessed as change in body weight at 50 mg/kg, ip qd for 14 days measured on day 20; format: organism-based; design: dose 50 mg/kg, route intraperitoneal; settings: in vivo, 336 h
[3] = Plasma concentration in BALB/c mouse at 200 mg/kg, po after 3 hrs; format: ADME, organism-based; design: dose 200 mg/kg, route oral
[4] = Plasma concentration in BALB/c mouse at 50 mg/kg, po after 3 hrs; format: ADME, organism-based; design: dose 50 mg/kg, route oral
Mus musculus [5] = experiment: Antiarthritic activity in BALB/c mouse type 2 collagen antibody-induced arthritis model assessed as physiological disease-modifying affect at 50 mg/kg, ip qd for 14 days measured on day 20 relative to control; format: functional, organism-based; design: dose 50 mg/kg
Mus musculus [6] = experiment: Antiarthritic activity in BALB/c mouse type 2 collagen antibody-induced arthritis model assessed as inhibition of disease burden at 50 mg/kg, ip qd for 14 days measured on day 20 relative to control; format: functional; settings: route intraperitoneal
Mus musculus [7] = experiment: Antiinflammatory activity in BALB/c mouse assessed as reduction of LPS-induced TNFalpha production in serum at 5 mg/kg, po administered 1 hr before LPS challenge measured after 3 hrs by EIA relative to LPS treated control; format: functional; design: scale not given: the % may be the effect or the level left
Mus musculus [8] = experiment: Antiinflammatory activity in BALB/c mouse assessed as reduction of LPS-induced TNFalpha production in serum at 5 to 100 mg/kg, po administered 1 hr before LPS challenge measured after 3 hrs by EIA; format: functional; design: scale not given: the % may be the effect or the level left; settings: dose mg/kg 5-100
[9] = Plasma concentration in BALB/c mouse at 50 mg/kg, ip after 3 hrs; format: ADME, organism-based; design: dose 50 mg/kg, route intraperitoneal
Mus musculus [10] = experiment: Antiarthritic activity in BALB/c mouse type 2 collagen antibody-induced arthritis model assessed as reduction of cartilage damage at 150 mg/kg, ip qd for 14 days measured on day 20 relative to control; format: functional, organism-based; design: dose 150 mg/kg
Mus musculus [11] = experiment: Antiarthritic activity in BALB/c mouse type 2 collagen antibody-induced arthritis model assessed as reduction of exostosis at 150 mg/kg, ip qd for 14 days measured on day 20 relative to control; format: functional, organism-based; design: dose 150 mg/kg
Mus musculus [12] = experiment: Hepatotoxicity in BALB/c mouse assessed as increase in serum ALT level at 50 mg/kg, ip after 13 to 19 days; format: toxicity, organism-based; design: dose 50 mg/kg, route intraperitoneal; settings: in vivo
Mus musculus [13] = experiment: Antiarthritic activity in BALB/c mouse type 2 collagen antibody-induced arthritis model assessed as reduction of inflammation at 150 mg/kg, ip qd for 14 days measured on day 20 relative to control; format: functional, organism-based; design: dose 150 mg/kg
Mus musculus [14] = experiment: Antiarthritic activity in BALB/c mouse type 2 collagen antibody-induced arthritis model assessed as physiological disease-modifying affect at 150 mg/kg, ip qd for 14 days measured on day 20 relative to control; format: functional, organism-based; design: dose 150 mg/kg
Mus musculus [15] = experiment: Hepatotoxicity in BALB/c mouse assessed as increase in serum ALT level at 150 mg/kg, po after 6 hrs; format: toxicity, organism-based; design: dose 150 mg/kg, route oral; settings: in vivo
Mus musculus [16] = experiment: Antiarthritic activity in BALB/c mouse type 2 collagen antibody-induced arthritis model assessed as reduction of bone resorption at 150 mg/kg, ip qd for 14 days measured on day 20 relative to control; format: functional, organism-based; design: dose 150 mg/kg
Mus musculus [17] = experiment: Hepatotoxicity in BALB/c mouse assessed as increase in serum ALT level at 150 mg/kg, ip after 13 to 19 days; format: toxicity, organism-based; design: dose 150 mg/kg, route intraperitoneal; settings: in vivo
Mus musculus [18] = experiment: Antiarthritic activity in BALB/c mouse type 2 collagen antibody-induced arthritis model assessed as reduction of pannus formation at 150 mg/kg, ip qd for 14 days measured on day 20 relative to control; format: functional, organism-based; design: dose 150 mg/kg
Mus musculus [19] = experiment: Hepatotoxicity in BALB/c mouse assessed as increase in serum ALT level at 50 mg/kg, po after 6 hrs; format: toxicity, organism-based; design: dose 50 mg/kg, route oral; settings: in vivo
Mus musculus [20] = experiment: Antiarthritic activity in BALB/c mouse type 2 collagen antibody-induced arthritis model assessed as inhibition of disease burden at 150 mg/kg, ip qd for 14 days measured on day 20 relative to control; format: functional; settings: route intraperitoneal
Mus musculus [21] = experiment: Toxicity in BALB/c mouse type 2 collagen antibody-induced arthritis model assessed as change in body weight at 150 mg/kg, ip qd for 14 days measured on day 20; format: organism-based; design: dose 150 mg/kg, route intraperitoneal; settings: in vivo, 336 h
Mus musculus [22] = experiment: Toxicity in BALB/c mouse type 2 collagen antibody-induced arthritis model assessed as change in body weight at 3 mg/kg, po qd for 14 days measured on day 20; format: organism-based; design: dose 3 mg/kg, route oral; settings: in vivo, 336 h
Mus musculus [23] = experiment: Antiarthritic activity in BALB/c mouse type 2 collagen antibody-induced arthritis model assessed as physiological disease-modifying affect at 3 mg/kg, po qd for 14 days measured on day 20 relative to control; format: functional, organism-based; design: dose 3 mg/kg
Mus musculus [24] = experiment: Antiarthritic activity in BALB/c mouse type 2 collagen antibody-induced arthritis model assessed as inhibition of disease burden at 3 mg/kg, po qd for 14 days measured on day 20 relative to control; format: functional

concentration at 3 h [1]: 9 µM
concentration at 3 h [3]: 4 µM
concentration at 3 h [4]: 2 µM
concentration at 3 h [9]: 6 µM
Structure (SMILES): CCOC(=O)[C@]1(c2ccccc2)N=C(c2ccccc2)N(Cc2ccccc2)[C@@H]1c1ccccc1
Activity (Mus musculus [2]): Non-toxic
Activity (Mus musculus [5]): Active
inhibition in vivo at 50 mg/kg (Mus musculus [6]): 67%
Activity (Mus musculus [7]): 50%
Activity (Mus musculus [8]): 50%

Structure (SMILES): CCOC(=O)C1(c2ccccc2)N=C(c2ccccc2)N(Cc2ccccc2)C1c1ccccc1 (racemic)
Activity (Mus musculus [10]): Active
Activity (Mus musculus [11]): Active
Activity (Mus musculus [12]): Non-toxic
Activity (Mus musculus [13]): Active
Activity (Mus musculus [14]): Active
Activity (Mus musculus [15]): Non-toxic
Activity (Mus musculus [16]): Active
Activity (Mus musculus [17]): Non-toxic
Activity (Mus musculus [18]): Active
Activity (Mus musculus [19]): Non-toxic
inhibition in vivo at 150 mg/kg (Mus musculus [20]): 94%
Activity (Mus musculus [21]): Non-toxic

Structure (SMILES): C[C@@H]1C[C@H]2[C@@H]3CCC4=CC(=O)C=C[C@]4(C)[C@@]3(F)[C@@H](O)C[C@]2(C)[C@@]1(O)C(=O)CO [DEXAMETHASONE]
Activity (Mus musculus [22]): Toxic
Activity (Mus musculus [23]): Active
inhibition in vivo at 3 mg/kg (Mus musculus [24]): 102%
